Laboratory results published in US20110237499A1, “HYBRID TRIPYRROLE-OCTAARGININE COMPOUNDS AND THEIR USE AS MEDICAMENT IN THE TREATMENT OF CANCER AND MICROBIAL ILLNESSES” (priority 2008, published 2011).
Square brackets hold non-standard residues; d marks the D form. Peptide text beside a SMILES is read from it. * marks the point of attachment. FITC = O=C1OC2(c3ccc(O)cc3Oc3cc(O)ccc32)c2ccc(NC(=S)*)cc21; Ahx = NCCCCCC(=O)O

How the values were obtained:
HeLa cells = assay: Cellular internalization assay in live HeLa cells (fluorescence microscopy); assay type: cell-based
Experimental: The internalization assays were performed in live HeLa cells.
The internalization assays were performed in live HeLa cells, recording the fluorescence images after 30 min, 90 min and 3 h.

HeLa 229 cells = assay: cells; assay type: cell-based; conditions: 48 hours incubation
Experimental: Preliminary cytotoxicity studies have been performed using HeLa 229 cells, to verify the possible effect of the presence of octaarginine chain on the biological activity. These studies have been performed following an incubation during 48 hours and they were later evaluated by cell staining by crystal violet and later acetylation.

Compound | extent of internalization (intracellular fluorescence) (HeLa cells; images after 30 min, 90 min and 3 h) | intracellular localization of the fluorescence signal (HeLa cells; incubation 90 min at 37° C., FIG. 2) | % Inhibition of the cellular growth (HeLa 229 cells; concentration 5.87 μM) [%] | inhibition at 176.5 µM (HeLa 229 cells; Homo sapiens, HeLa 229, concentration 176.5 μM, read-out: % Inhibition of the cellular growth) [%]
N=C(N)NCCC[C@H](NC(=O)[C@H](CCCNC(=N)N)NC(=O)[C@H](CCCNC(=N)N)NC(=O)[C@H](CCCNC(=N)N)NC(=O)[C@H](CCCNC(=N)N)NC(=O)[C@H](CCCNC(=N)N)NC(=O)[C@H](CCCNC(=N)N)NC(=O)[C@H](CCCNC(=N)N)NC(=O)CCCCCNC(=O)[C@H](CCCCN)NC(=O)CCCCCNC(=S)Nc1ccc2c(c1)C(=O)OC21c2ccc(O)cc2Oc2cc(O)ccc21)C(N)=O [1B] ({FITC-Ahx}-K[Ahx]RRRRRRRR-NH2) | the fluorescence is intense | exclusively localized in the cytoplasm | 1 ± 2 | 
CC(=O)Nc1c[nH]c(C(=O)Nc2cc(C(=O)Nc3cc(C(=O)NCCCN(C)C)n(C)c3)n(C)c2)c1 [compound 9] |  |  |  | 4 ± 3
